According to patent US20050171211A1, “Gingerol analogues and use thereof” (priority 2002, published 2005):
Read-outs that look alike come from different tables or passages of the source.

Columns and labels:
[1] = Test about suppression of lipid peroxide generation in linoleic acid
Protocol: Using the compound of the formula (11) as obtained in Example 1 and the compound of the formula (12) as obtained in Example 2, a test about the suppression of lipid peroxide generation in linoleic acid was done. Along with the compounds, dl-α-tocopherol (manufactured by Tokyo Kasei Kogyo Co., Ltd.) was tested similarly, to obtain control data.
The test procedures are as follows. As a test result, the ratio of residual linoleic acid by the following procedure (3) is described in Table 1.
(1) After ethanol (2.0 g ) was added to linoleic acid (0.2 g; manufactured by Tokyo Kasei Kogyo Co., Ltd.), a test compound (0.01 g) and a surface active agent Nissan OT-221 (0.4 g; manufactured by NOF Corporation) placed in a 50-ml screw vial, for dissolution, distilled water (17.39 g) was added to the resulting solution for agitation, and was then sealed and left to stand alone in a thermostat at 40° C. Such sample was prepared in a duplex manner.
A blank test with no test compound added was similarly done.
(2) The amount of remaining linoleic acid one week, 2 weeks, 3 weeks and 4 weeks after the start of the test was assayed by HPLC.
The HPLC analytical conditions were as follows. Wavelength for detection: 210 nm. Mobile phase: a mixture solution of a disodium hydrogen phosphate-phosphate buffer adjusted to pH 2.5 and methanol (10:90). Flow: 1 ml/min. Column: ODS-8OTs (4.6 Φmm×150 mm). Column temperature at 40° C.
(3) Each sample was assayed by HPLC two times. The ratio of remaining linoleic acid was calculated on the basis of the mean of four assay values.

[2] = Test about scavenging DPPH radical; settings: final concentration 10 μg/mL; for Ratio of scavenging DPPH radical: 20 minutes, darkness, ambient temperature, absorbance at 517 nm
Protocol: Concerning radical-scavenging activity, a stable radical DPPH (1,1-diphenyl-2-picrylhydrazyl) was used for assaying the radical-scavenging activities of test compounds [the compound of the formula (11) and the compound of the formula (12) and a control sample dl-α-tocopherol (manufactured by Tokyo Kasei Kogyo Co., Ltd.)]. The assay method is as follows. Tris below is an acronym of tris(hydroxymethyl)aminomethane and M represents the concentration unit Mol/L.
1 ml of 200 μM DPPH solution in ethanol was added to 800 μl of 100 mM Tris-HCl buffer, pH 7.4 and 200 μl of a test compound solution in ethanol (to a final concentration of 10 μg/mL), for sufficient agitation. After the resulting mixture was left to stand alone in darkness at ambient temperature for 20 minutes, the absorbance at 517 nm was measured (absorbance of the test solutions).
Meanwhile, 800 μl of 100 mM Tris-HCl buffer, pH 7.4, 200 μl of ethanol and 1 ml of 200 μM DPPH solution in ethanol were used for the same procedures as described above to measure the absorbance to obtain the absorbance of the blank.
The individual test compounds and the blank were repeatedly treated by the same procedures three times, and the mean of the resulting absorbance values was inserted in the following formula, to calculate the ratio of scavenging DPPH radical. Ratio of scavenging DPPH radical (%)={1-(absorbance of sample solution/absorbance of blank solution)}×100

mushroom tyrosinase = assay: Test about the inhibition of tyrosinase activity using L-dopa as substrate; type: biochemical; settings: 0.27 or 0.54 μmol in 3 ml enzyme reaction solution, 25° C.
Protocol: Using the compound of the formula (11) obtained in Example 1, a test about the inhibition of tyrosinase activity using L-dopa as substrate was done. The same test was done about arbutin (manufactured by Tokyo Kasei Kogyo Co., Ltd.), to get control data. The test procedures are as follows. […]
(2) 0.10 ml of an enzyme solution prepared by dissolving 3.0 mg (2400 units; manufactured by Sigma Corporation) of mushroom tyrosinase in 7.0 ml of distilled water was added to the solution prepared in (1), for agitation for 15 seconds. The resulting solution was retained at 25° C., to measure the absorbance at 475 nm one minute-45 seconds later and 2 minute- 45 seconds later.
(3) The test procedures above in (1) and (2) were conducted three times for the individual test compounds and blank test (only dimethylsulfoxide), and the resulting mean was inserted in the following calculation formula to determine the ratio (%) of the inhibition of tyrosinase activity. Ratio of inhibition of tyrosinase activity (%)=[(T^1-T^2)/T^1]×100 T^1=difference in absorbance of blank solution between 2 minute-45 seconds later and one minute-45 seconds later T^2=difference in absorbance of solution with addition of test compound between 2 minute-45 seconds later and one minute-45 seconds later

Row | SMILES | ratio of remaining linoleic acid [1] [%] | ability of scavenging radical compared with dl-α-tocopherol [2] | Ratio of scavenging DPPH radical [2] [%] | inhibition of tyrosinase activity compared with arbutin (FIG. 1) (mushroom tyrosinase) | ratio of remaining linoleic acid ([1]; 2 weeks later, 40° C., 0.01 g test compound, 0.2 g linoleic acid, HPLC) [%] | ratio of remaining linoleic acid ([1]; 3 weeks later, 40° C., 0.01 g test compound, 0.2 g linoleic acid, HPLC) [%] | ratio of remaining linoleic acid ([1]; 4 weeks later, 40° C., 0.01 g test compound, 0.2 g linoleic acid, HPLC) [%] | ratio of remaining linoleic acid ([1]; one week later, 40° C., 0.01 g test compound, 0.2 g linoleic acid, HPLC) [%]
1 | CCCCCC(CC(=O)CCc1ccc(O)c(OC)c1)OC (stereo not drawn) [Compound of formula (11)] | 90.5 | higher levels than that of dl-α-tocopherol | 35.1 | superior to that of arbutin |  |  |  | 
2 | Cc1c(C)c2c(c(C)c1O)CCC(C)(CCCC(C)CCCC(C)CCCC(C)C)O2 (racemic) [Tocopherol, dl-α-tocopherol] |  |  | 26.7 |  | 73.2 | 62.6 | 57.3 | 83.6
3 | CCCCCC(CC(O)CCc1ccc(O)c(OC)c1)OC (stereo not drawn) [Compound of formula (12)] | 89.2 | higher levels than that of dl-α-tocopherol | 40.0 |  |  |  |  | 
